Measurements as given in patent US9085582B2, “Benzotriazolodiazepine compounds inhibitors of bromodomains” (GlaxoSmithKline LLC, priority 2010, dated 2015).

Test system: IL-6
Assay: Measurement of LPS induced IL-6 secretion from whole blood
Type: cell-based
Details: LPS 200 ng/ml stimulated whole blood, 24 hours, IL-6 by immunoassay
Protocol: Measurement of LPS Induced IL-6 Secretion from Whole Blood
Activation of monocytic cells by agonists of toll-like receptors such as bacterial lipopolysaccharide (LPS) results in production of key inflammatory mediators including IL-6. Such pathways are widely considered to be central to the pathophysiology of a range of auto-immune and inflammatory disorders.
Compounds to be tested are diluted to give a range of appropriate concentrations of which 1 ul of the diluted stocks is added to a 96 well plate. Following addition of whole blood (130 ul) the plates are incubated at 37 degrees (5% CO2) for 30 min before the addition of 10 ul of 2.8 ug/ml LPS, diluted in complete RPMI 1640 (final concentration=200 ng/ml), to give a total volume of 140 ul per well. After further incubation for 24 hours at 37 degrees, 140 ul of PBS are added to each well. The plates are sealed, shaken for 10 minutes and then centrifuged (2500 rpm×10 min). 100 ul of the supernatant are removed and IL-6 levels assayed by immunoassay (typically by MesoScale Discovery technology) either immediately or following storage at −20 degrees. Concentration response curves for each compound was generated from the data and an IC50 value was calculated

`CCNC(=O)C[C@@H]1N=C(c2ccc(Cl)cc2)c2cc(-c3ccccc3)ccc2-n2c(C)nnc21` [Example 1, 2-[(4S)-6-(4-Chlorophenyl)-1-methyl-8-phenyl-4H-[1,2,4]triazolo[4,3-a][1,4]benzodiazepin-4-yl]-N-ethylacetamide] was tested. Which IC50 did it give?
Its IC50 is ≤ 3.16 µM.

How did the IC50 turn out when `CCNC(=O)C[C@@H]1N=C(c2ccc(Cl)cc2)c2cc(-c3ccc(OC)cc3)ccc2-n2c(C)nnc21` [Example 3, 2-{(4S)-6-(4-Chlorophenyl)-1-methyl-8-[4-(methyloxy)phenyl]-4H-[1,2,4]triazolo[4,3-a][1,4]benzodiazepin-4-yl}-N-ethylacetamide] was run?
Its IC50 is ≤ 3.16 µM.

With `CCNC(=O)C[C@@H]1N=C(c2ccc(Cl)cc2)c2cc(-c3ccn[nH]3)ccc2-n2c(C)nnc21` [Example 4, 2-[(4S)-6-(4-Chlorophenyl)-1-methyl-8-(1H-pyrazol-5-yl)-4H-[1,2,4]triazolo[4,3-a][1,4]benzodiazepin-4-yl]-N-ethylacetamide] as the molecule, how does the IC50 read?
The IC50 was ≤ 3.16 µM.

`CCNC(=O)C[C@@H]1N=C(c2ccc(Cl)cc2)c2cc(-c3cn[nH]c3)ccc2-n2c(C)nnc21` [Example 5, 2-[(4S)-6-(4-Chlorophenyl)-1-methyl-8-(1H-pyrazol-4-yl)-4H-[1,2,4]triazolo[4,3-a][1,4]benzodiazepin-4-yl]-N-ethylacetamide] was tested. Which IC50 did it give?
Its IC50 is ≤ 3.16 µM.

How did the IC50 turn out when `CCNC(=O)C[C@@H]1N=C(c2ccc(Cl)cc2)c2cc(-c3ccc(CN4CCCC4)cc3)ccc2-n2c(C)nnc21` [Example 13, (S)-2-(6-(4-Chlorophenyl)-1-methyl-8-(4-(pyrrolidin-1-ylmethyl)phenyl)-4H-benzo[f][1,2,4]triazolo[4,3-a][1,4]diazepin-4-yl)-N-ethylacetamide] was run?
Its IC50 is ≤ 3.16 µM.
